According to US11766427B2, “Repurposing compounds for the treatment of infections and for modulating the composition of the gut microbiome” (EUROPEAN MOLECULAR BIOLOGY LABORATORY, priority 2018, dated 2023):
Where two headings read alike, the source gives them in different places. Values belong to the compound of their own block, whether it stands above or below them.

How the values were obtained:
[1] = system: Fusobacterium nucleatum (NT5025); experiment: Prestwick Chemical Library growth screen (OD578 growth curves, AUC); format: cell-based; conditions: screen at 20 μM
[2] = system: 40 different bacterial species; experiment: Prestwick Chemical Library growth screen, whole panel (hits, anticommensal activity); format: cell-based, human gut isolates
[3] = system: 22 strains; experiment: MIC of metformin at higher concentrations; conditions: 5/22 strains
[4] = Estimated gut concentration from administration dose; conditions: estimated from recommended administration dose
[5] = calculated; cited from earlier work
[6] = cited from earlier work

SMILES: O=c1cc(-c2ccc(O)c(O)c2)oc2cc(O)cc(O)c12 [Luteolin]
selective inhibition of the growth of Fusobacterium nucleatum (in words) [1]: selectively inhibiting the growth
n_hit ([2]; number of species inhibited of 40 different bacterial species tested): 1

Minimal Inhibitory Concentration (MIC) [3]: < 10 mM
estimated gut concentration [4]: 5 mM
SMILES: CN(C)C(=N)N=C(N)N [metformin]
small intestine concentration relative to plasma concentration [5]: 30-300 fold
anticommensal activity in the screen (in words) ([2]; 20 μM, 40 strains, FDR<0.01): did not show anticommensal activity

SMILES: CC[C@@H]([C@H](C)O)n1ncn(-c2ccc(N3CCN(c4ccc(OC[C@@H]5CO[C@@](Cn6cncn6)(c6ccc(F)cc6F)C5)cc4)CC3)cc2)c1=O [posaconazole]
maximum concentration in the duodenum ([6]; 40 mg (57 μmol) delivered to the stomach in acidic solution): 26.3 ± 10.3 µM
maximum concentration in the duodenum ([6]; 40 mg (57 μmol) delivered to the stomach in neutral solution): 13.6 ± 5.8 µM
